In patent US9089509B2, “Method of treatment of age-related macular degeneration” (YEDA RESEARCH AND DEVELOPMENT CO., LTD., priority 2006, dated 2015):

Assays:
[1] = test system: microglia; assay: Engulfment of aggregated Aβ(1-40) by activated microglia; format: cell-based, mouse; details: 10 ng/ml; Aβ(1-40) 5 μg/ml for 1 h, vs untreated microglia (FIG. 5)
Experimental: FIGS. 5A-5B show engulfment of aggregated Aβ by activated microglia. Microglia were treated with IL-4 (10 ng/ml) 24 h after seeding (MG(IL-4)) or were left untreated for 48 h (MG(−)). The media were then replaced by a labeling medium (DMEM containing 10 mg/ml bovine serum albumin), and aggregated Aβ(1-40) was added (5 μg/ml) for 1 h. Following incubation the cultures were fixed and immunostained with antibodies directed to human Aβ and co-stained for microglia (IB-4). (FIG. 5A) Confocal photomicrographs. (FIG. 5B) Quantitative analysis expressed as intensity per cell. Results of one of two experiments, each containing eight replicates (20-30 cells per replicate) per group are presented (means±SD).
Brains from neonatal (P0-P1) C57Bl/6J mice were stripped of their meninges and minced with scissors under a dissecting microscope (Zeiss, Stemi DV4, Germany) in Leibovitz-15 medium (Biological Industries, Kibbutz Beit Ha-Emek, Israel). After trypsinization (0.5% trypsin, 10 min, 37° C./5% CO2), the tissue was triturated. […]

[2] = test system: microglia; assay: CD11c expression and morphology in primary culture of mouse microglia; format: cell-based
Experimental: Brains from neonatal (P0-P1) C57Bl/6J mice were stripped of their meninges and minced with scissors under a dissecting microscope (Zeiss, Stemi DV4, Germany) in Leibovitz-15 medium (Biological Industries, Kibbutz Beit Ha-Emek, Israel). After trypsinization (0.5% trypsin, 10 min, 37° C./5% CO2), the tissue was triturated. The cell suspension was washed in culture medium for glial cells [DMEM supplemented with 10% fetal calf serum (FCS; Sigma-Aldrich, Rehovot), L-glutamine (1 mM), sodium pyruvate (1 mM), penicillin (100 U/ml), and streptomycin ([…])] and cultured at 37° C./5% CO2 in 75-cm^2 Falcon tissue-culture flasks (BD Biosciences) coated with poly-D-lysine (PDL) (10 mg/ml; Sigma-Aldrich, Rehovot) in borate buffer (2.37 g borax and 1.55 g boric acid dissolved in 500 ml sterile water, pH 8.4) for 1 h, then rinsed thoroughly with sterile, glass-distilled water. Half of the medium was changed after 6 h in culture and every 2nd day thereafter, starting on day 2, for a total culture time of 10-14 days. Microglia were shaken off the primary mixed brain glial cell cultures (150 rpm, 37° C., 6 h) with maximum yields between days 10 and 14, seeded (10^5 cells/ml) onto PDL-pretreated 24-well plates (1 ml/well; Corning, N.Y., N.Y.), and grown in culture medium for microglia [RPMI-1640 medium (Sigma-Aldrich, Rehovot) supplemented with 10% FCS, L-glutamine (1 mM), sodium pyruvate (1 mM), β-mercaptoethanol ([…]), penicillin (100 U/ml), and streptomycin ([…])]. The cells were allowed to adhere to the surface of a PDL-coated culture flask (30 min, 37° C./5% CO2), and non-adherent cells were rinsed off.
Cover slips from co-cultures of NPCs and mouse microglia were washed with PBS, fixed as described above, treated with a permeabilization/blocking solution containing 10% FCS, 2% bovine serum albumin, 1% glycine, and 0.1% Triton X-100 (Sigma-Aldrich, Rehovot), and stained with a combination of mouse anti-[…] (anti-βIII-T) isoform C-terminus antibodies (1:500; Chemicon, Temecula, Calif.), rat anti-CD11b (MAC1; 1:50; BD—Pharmingen, Franklin Lakes, N.J.) and hamster anti-CD11c (1:100; eBioscience, San Diego, Calif.). To capture the microglia FITC- or Cy3-conjugated Bandeiraea simplicifolia isolectin B4 (IB-4; 1:50; Sigma-Aldrich, Rehovot) was used. To detect expression of human Aβ anti-Aβ (human amino-acid residues 1-17) (mouse, clone 6E10; Chemicon) was used.
On the basis of our previous findings, we suspected that the switch from a CD11b^+/CD11c^−/IGF-1^− to a CD11b^+/CD11c^+/IGF-I^+ microglial phenotype in the Cop-1 vaccinated Tg-AD mice might be attributable to IL-4. We examined this possibility in vitro. […] In contrast, the expression of CD11c induced by IL-4 was not transient. Quantification of the ability of IL-4 to induce CD11c expression even after the microglia were pretreated with Aβ is shown in FIG. 4D.
Thus, upregulation of CD11c on bone marrow derived myeloid cells by […] will allow the cells to reach injured sites and induce beneficial effect.

[3] = test system: microglia; details: added to microglia activated by aggregated Aβ (Butovsky et al., 2005); cited from earlier work
[4] = test system: neural stem/progenitor cells (NPCs) co-cultured with microglia; assay: Co-culture of GFP-expressing neural progenitor cells with treated microglia, neurogenesis (GFP+/βIII-T+ cells); format: cell-based, mouse; details: cytokine 10 ng/ml added for 48 h after 48 h aggregated Aβ(1-40) 5 μM
Experimental: Coronal sections (2 mm thick) of tissue containing the subventricular zone of the lateral ventricle were obtained from the brains of adult C57Bl/6J mice. The tissue was minced and then incubated for digestion at 37° C., 5% CO2 for 45 min in Earle's balanced salt solution containing 0.94 mg/ml papain (Worthington, Lakewood, N.J.) and 0.18 mg/ml of L-cysteine and EDTA. After centrifugation at 110×g for 15 min at room temperature, the tissue was mechanically dissociated by pipette trituration. Cells obtained from single-cell suspensions were plated (3500 cells/cm^2) in 75-cm^2 Falcon tissue-culture flasks (BD Biosciences, San Diego, Calif.), in neural stem/progenitor cell (NPC)-culturing medium [Dulbecco's modified Eagles's medium (DMEM)/F12 medium (Gibco/Invitrogen, Carlsbad, Calif.) containing 2 mM L-glutamine, 0.6% glucose, 9.6 μg/ml putrescine, 6.3 ng/ml progesterone, 5.2 ng/ml sodium selenite, 0.02 mg/ml insulin, 0.1 mg/ml transferrin, 2 μg/ml heparin (all from Sigma-Aldrich, Rehovot, Israel), fibroblast growth factor-2 (human recombinant, 20 ng/ml), and epidermal growth factor (human recombinant, 20 ng/ml; both from Peprotech, Rocky Hill, N.J.)]. Spheres were passaged every 4-6 days and replated as single cells. Green fluorescent protein (GFP)-expressing NPCs were obtained as previously described (Pluchino et al., 2003).
Brains from neonatal (P0-P1) C57Bl/6J mice were stripped of their meninges and minced with scissors under a dissecting microscope (Zeiss, Stemi DV4, Germany) in Leibovitz-15 medium (Biological Industries, Kibbutz Beit Ha-Emek, Israel). After trypsinization (0.5% trypsin, 10 min, 37° C./5% CO2), the tissue was triturated. The cell suspension was washed in culture medium for glial cells [DMEM supplemented with 10% fetal calf serum (FCS; Sigma-Aldrich, Rehovot), L-glutamine (1 mM), sodium pyruvate (1 mM), penicillin (100 U/ml), and streptomycin ([…])] and cultured at 37° C./5% CO2 in 75-cm^2 Falcon tissue-culture flasks (BD Biosciences) coated with poly-D-lysine (PDL) (10 mg/ml; Sigma-Aldrich, Rehovot) in borate buffer (2.37 g borax and 1.55 g boric acid dissolved in 500 ml sterile water, pH 8.4) for 1 h, then rinsed thoroughly with sterile, glass-distilled water. Half of the medium was changed after 6 h in culture and every 2nd day thereafter, starting on day 2, for a total culture time of 10-14 days. […]

## IL-4: recombinant mouse IL-4, a cytokine derived from T-helper (Th)-2 cells
[1]
  ability of microglia to engulf aggregated Aβ(1-40) (intracellular immunoreactive Aβ): did not interfere with the ability of microglia to engulf Aβ
[2]; 5-day microglia cultures, vs untreated (FIG. 4A)
  CD11c expression by microglia: abundantly expressed
[2]; FIG. 4C
  persistence of induced CD11c expression as a function of time in culture: not transient
[2]; cytokine added 3 days after exposure to aggregated Aβ(1-40) (FIG. 4B, 4D)
  CD11c expression by microglia pre-exposed to Aβ: able to induce them to express CD11c
[2]; on addition of cytokine, dendritic-like morphology (FIG. 4B)
  amoeboid morphology of Aβ-treated microglia: reversible on addition of IL-4
[3]
  effect on Aβ-induced down-regulation of IGF-I, up-regulation of TNF-α and failure to act as APCs: can reverse the down-regulation of IGF-I expression
[4]
  counteracting the negative effect of Aβ-activated microglia on NPC survival and differentiation: partially counteracted
